Data: PMC3265371 (Nature Communications, 2011)
Read-outs that look alike come from different tables or passages of the source.

Experiments:
[1] = molecular target: T1, CNGA1 (homomeric channel) (Bos taurus, UniProt Q00194); experiment: inside-out patch clamp, activated current; format: biochemical; settings: 2.5 mM cGMP, ±60 mV, pH 7.2; activation, saturating
T1 sequence (Q00194 1-690): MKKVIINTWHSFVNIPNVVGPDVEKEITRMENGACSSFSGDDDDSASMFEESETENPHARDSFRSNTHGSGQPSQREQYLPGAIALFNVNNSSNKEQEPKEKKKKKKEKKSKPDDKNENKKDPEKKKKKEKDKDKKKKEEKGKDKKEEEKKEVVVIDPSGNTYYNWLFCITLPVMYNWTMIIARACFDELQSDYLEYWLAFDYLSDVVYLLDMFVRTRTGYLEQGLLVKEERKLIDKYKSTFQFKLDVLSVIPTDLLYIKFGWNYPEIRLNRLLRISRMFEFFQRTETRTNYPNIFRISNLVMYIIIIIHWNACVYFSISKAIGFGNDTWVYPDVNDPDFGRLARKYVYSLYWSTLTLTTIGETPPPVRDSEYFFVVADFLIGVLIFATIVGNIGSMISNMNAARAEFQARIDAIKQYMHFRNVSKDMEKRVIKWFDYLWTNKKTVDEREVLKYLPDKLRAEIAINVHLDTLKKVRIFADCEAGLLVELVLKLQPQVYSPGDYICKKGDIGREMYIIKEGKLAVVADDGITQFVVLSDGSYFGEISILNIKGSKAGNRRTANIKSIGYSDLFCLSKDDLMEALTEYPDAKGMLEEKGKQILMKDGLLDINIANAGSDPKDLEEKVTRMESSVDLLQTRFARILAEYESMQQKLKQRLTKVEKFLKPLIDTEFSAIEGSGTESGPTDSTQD

[2] = molecular target: T2, CNGA1-ΔCLZ (homomeric channel) (Bos taurus, UniProt Q00194, DEL609-693); experiment: inside-out patch clamp, block of cGMP-activated current; format: cell-based
T2 sequence (Q00194 1-608): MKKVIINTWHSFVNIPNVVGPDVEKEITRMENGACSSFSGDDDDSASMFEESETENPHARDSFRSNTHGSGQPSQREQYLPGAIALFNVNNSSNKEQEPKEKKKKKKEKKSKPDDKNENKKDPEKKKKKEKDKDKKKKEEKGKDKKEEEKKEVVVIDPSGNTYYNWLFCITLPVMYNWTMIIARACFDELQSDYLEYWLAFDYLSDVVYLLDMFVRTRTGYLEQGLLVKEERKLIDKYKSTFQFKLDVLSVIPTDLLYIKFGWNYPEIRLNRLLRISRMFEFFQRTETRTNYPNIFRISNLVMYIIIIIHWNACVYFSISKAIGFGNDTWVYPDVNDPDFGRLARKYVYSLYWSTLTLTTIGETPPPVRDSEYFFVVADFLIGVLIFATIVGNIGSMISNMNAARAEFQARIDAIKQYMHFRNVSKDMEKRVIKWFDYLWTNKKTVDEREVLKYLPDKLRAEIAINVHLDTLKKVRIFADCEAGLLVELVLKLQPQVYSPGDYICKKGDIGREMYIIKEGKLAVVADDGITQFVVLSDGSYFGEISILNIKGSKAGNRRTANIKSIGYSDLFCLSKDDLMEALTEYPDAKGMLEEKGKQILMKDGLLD

[3] = molecular target: CNGA1+CNGB1 (heteromeric rod CNG channel) (Bos taurus, UniProt Q00194+Q28181); experiment: as above; format: cell-based
CNGA1+CNGB1-ΔN = CNGA1+CNGB1-ΔN (Bos taurus, UniProt Q00194+Q28181, DEL2-765); experiment: as above; format: cell-based
[4] = molecular target: T1, CNGA1 (homomeric channel); experiment: as above; format: cell-based
SEC-MALS = molecular target: the molecule itself; experiment: SEC-MALS
[5] = molecular target: the molecule itself

Chain of CNGA1+CNGB1-ΔN (Q28181 766-1394, stated change not applied, one chain of several): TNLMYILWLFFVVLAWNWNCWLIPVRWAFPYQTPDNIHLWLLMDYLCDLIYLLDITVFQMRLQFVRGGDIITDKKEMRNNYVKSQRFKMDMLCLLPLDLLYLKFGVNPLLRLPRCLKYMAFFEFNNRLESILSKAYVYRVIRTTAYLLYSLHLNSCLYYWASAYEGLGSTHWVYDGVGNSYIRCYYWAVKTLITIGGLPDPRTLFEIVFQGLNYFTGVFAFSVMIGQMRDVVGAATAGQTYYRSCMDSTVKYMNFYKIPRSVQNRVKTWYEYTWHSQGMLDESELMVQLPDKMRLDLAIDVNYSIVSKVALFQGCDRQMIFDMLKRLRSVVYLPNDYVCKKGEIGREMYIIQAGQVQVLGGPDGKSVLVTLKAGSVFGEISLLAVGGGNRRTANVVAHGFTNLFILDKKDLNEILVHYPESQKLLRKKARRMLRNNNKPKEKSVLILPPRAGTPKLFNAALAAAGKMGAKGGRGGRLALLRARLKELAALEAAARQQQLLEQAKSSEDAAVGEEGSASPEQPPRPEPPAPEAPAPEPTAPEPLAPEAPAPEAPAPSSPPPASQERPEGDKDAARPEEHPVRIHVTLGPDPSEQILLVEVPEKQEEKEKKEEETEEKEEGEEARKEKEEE
Chain of CNGA1+CNGB1 (heteromeric rod CNG channel) (Q28181 whole entry, one chain of several): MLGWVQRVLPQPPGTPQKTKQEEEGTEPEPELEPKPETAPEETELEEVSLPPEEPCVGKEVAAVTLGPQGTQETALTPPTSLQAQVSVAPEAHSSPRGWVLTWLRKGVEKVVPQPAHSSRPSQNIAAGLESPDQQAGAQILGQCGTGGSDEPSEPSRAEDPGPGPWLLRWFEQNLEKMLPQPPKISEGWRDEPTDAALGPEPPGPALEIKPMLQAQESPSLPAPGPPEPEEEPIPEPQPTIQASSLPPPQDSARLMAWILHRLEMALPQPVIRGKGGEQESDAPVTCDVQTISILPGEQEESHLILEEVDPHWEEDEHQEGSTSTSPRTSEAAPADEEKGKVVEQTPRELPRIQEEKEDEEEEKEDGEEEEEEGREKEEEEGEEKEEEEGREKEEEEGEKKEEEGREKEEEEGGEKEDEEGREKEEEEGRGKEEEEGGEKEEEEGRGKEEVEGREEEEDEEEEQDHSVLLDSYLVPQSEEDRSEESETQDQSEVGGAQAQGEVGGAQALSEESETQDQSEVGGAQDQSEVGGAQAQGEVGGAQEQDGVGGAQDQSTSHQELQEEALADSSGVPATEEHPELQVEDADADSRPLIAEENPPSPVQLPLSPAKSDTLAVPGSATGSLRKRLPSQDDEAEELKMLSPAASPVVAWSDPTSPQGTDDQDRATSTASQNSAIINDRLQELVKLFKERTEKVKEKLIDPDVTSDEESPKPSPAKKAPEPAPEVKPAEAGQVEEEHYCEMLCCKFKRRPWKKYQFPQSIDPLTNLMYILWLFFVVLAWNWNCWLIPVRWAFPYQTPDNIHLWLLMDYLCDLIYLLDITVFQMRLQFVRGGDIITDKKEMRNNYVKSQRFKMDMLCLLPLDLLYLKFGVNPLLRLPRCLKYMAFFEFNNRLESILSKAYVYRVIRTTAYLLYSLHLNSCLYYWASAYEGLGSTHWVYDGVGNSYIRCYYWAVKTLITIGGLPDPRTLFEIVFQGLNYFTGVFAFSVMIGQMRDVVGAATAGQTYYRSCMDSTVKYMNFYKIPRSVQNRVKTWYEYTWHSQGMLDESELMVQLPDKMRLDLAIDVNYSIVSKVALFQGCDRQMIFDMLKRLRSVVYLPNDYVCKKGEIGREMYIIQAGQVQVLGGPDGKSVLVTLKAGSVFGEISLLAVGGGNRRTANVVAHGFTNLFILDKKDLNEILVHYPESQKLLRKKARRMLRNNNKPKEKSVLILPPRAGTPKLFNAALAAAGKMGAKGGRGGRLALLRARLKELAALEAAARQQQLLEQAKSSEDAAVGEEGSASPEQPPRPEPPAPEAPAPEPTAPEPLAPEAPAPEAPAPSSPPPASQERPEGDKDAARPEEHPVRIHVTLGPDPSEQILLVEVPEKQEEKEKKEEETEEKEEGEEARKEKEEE

Nc1nc2c(ncn2[C@@H]2O[C@@H]3COP(=O)(O)O[C@H]3[C@H]2O)c(=O)[nH]1 [cGMP]
inside-out patch clamp, activated current [1]: Homomeric channels of CNGA1 subunits are efficiently activated by saturating cGMP

COc1ccc([C@H]2Sc3ccccc3N(CCN(C)C)C(=O)[C@H]2OC(C)=O)cc1 [L-cis-diltiazem]
IC50 [2]: 164 ± 8.2 µM
IC50 [3]: 2450 ± 280 nM
IC50 (CNGA1+CNGB1-ΔN): 1400 ± 210 nM
IC50 [4]: 174 ± 7.2 µM

B1: CNGA3#626–694 (domain or fragment, human, UniProt Q16281 626-694, looked up)
chain: LEEKVEQLGSSLDTLQTRFARLLAEYNATQMKMKQRLSQLESQVKGGGDKPLADGEVPGDATKTEDKQQ
stoichiometry N (SEC-MALS): 3

B2: CNGA1#621–690 (domain or fragment, bovine, UniProt Q00194 621-690, looked up)
chain: LEEKVTRMESSVDLLQTRFARILAEYESMQQKLKQRLTKVEKFLKPLIDTEFSAIEGSGTESGPTDSTQD
stoichiometry N (SEC-MALS): 3

LEEKVTRMESSVDLLQTRFARILAEYESMQQKLKQRLTKVEKFLKPL (domain or fragment, bovine, UniProt Q00194 621-667, looked up) [CNGA1#621–667]
stoichiometry N [5]: 3

LEEKVEQLGSSLDTLQTRFARLLAEYNATQMKMKQRLSQLESQVKGG (domain or fragment, human, UniProt Q16281 626-672, looked up) [CNGA3#626–672]
stoichiometry N [5]: 3
